Results taken from the supplement of paper PMC7695840.
Values joined by “and” are separate entries in the source; they are usually repeats but may differ in a detail not shown here. Equal values may be shown once. Where a name gives a salt, the structure may show the parent alone.

What was measured:
[1] = test system: Staphylococcus aureus MW2 delta-mecA (mecA-); test: IC50 (growth, competition assay); settings: cefoxitin: subinhibitory
Outline: (§1)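 Per plate, DsRed (540/590) and GFP (485/520) readings were normalized between the medians of the single-strain controls, after which No Treatment was fixed at 0.5. These readings came from a 1:1 mix of pre-induced fluorescent S. aureus MW2 strains with and without the resistance gene, grown for 20 h at 37 °C and 90% humidity, unshaken, in LB with a daily-set subinhibitory drug dose in 1536-well plates. Per-strain IC50 meant the dose halving the No Treatment signal, or the maximal signal.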

[2] = test system: Staphylococcus aureus MW2 (mecA+); test: IC50 (growth, competition assay); settings: cefoxitin: subinhibitory
Outline: as §1

## COc1ccc(Cl)cc1NC(=O)Nc1cc(C)nc2ccccc12 [PQ 401]
[1]; fluorescent label: DsRed
  IC50: 10.6 µM
[1]; fluorescent label: GFP
  IC50: 12.3 µM
[2]; fluorescent label: DsRed
  IC50: 24.3 µM
[2]; fluorescent label: GFP
  IC50: 17.9 µM

## CC1COc2c(N3CCN(C)CC3)c(F)cc3c(=O)c(C(=O)O)cn1c23 (centres undefined) [Ofloxacin]
[1]; fluorescent label: DsRed
  IC50: < 9.85 µM
[1]; fluorescent label: GFP
  IC50: < 9.85 µM
[2]; fluorescent label: DsRed
  IC50: < 9.85 µM
[2]; fluorescent label: GFP
  IC50: < 9.85 µM

## CC(C)(C)c1cc(/C=C(\C#N)C(N)=S)cc(C(C)(C)C)c1O [Tyrphostin AG 879 (AG 879)]
[1]; fluorescent label: DsRed
  IC50: < 9.85 µM
[1]; fluorescent label: GFP
  IC50: < 9.85 µM
[2]; fluorescent label: DsRed
  IC50: < 9.85 µM
[2]; fluorescent label: GFP
  IC50: 14 µM

## COc1cc(/C=C/C(=O)CC(=O)/C=C/c2ccc(O)c(OC)c2)ccc1O [Curcumin]
[1]; fluorescent label: DsRed
  IC50: 4.13 µM
[1]; fluorescent label: GFP
  IC50: 3.73 µM
[2]; fluorescent label: DsRed
  IC50: 34.7 µM
[2]; fluorescent label: GFP
  IC50: 53.8 µM

## C=C1/C(=C\C=C2/CCC[C@]3(C)[C@@H]([C@H](C)CCCC(C)C)CC[C@@H]23)C[C@@H](O)C[C@@H]1O [Alfacalcidol]
[1]; fluorescent label: DsRed
  IC50: > 150 µM
[1]; fluorescent label: GFP
  IC50: > 150 µM
[2]; fluorescent label: DsRed
  IC50: > 150 µM
[2]; fluorescent label: GFP
  IC50: > 150 µM

## COc1ccc(CCN2CCC(Nc3nc4ccccc4n3Cc3ccc(F)cc3)CC2)cc1 [HISMANAL]
[1]; fluorescent label: DsRed
  IC50: 45.1 µM
[1]; fluorescent label: GFP
  IC50: 20.2 µM
[2]; fluorescent label: DsRed
  IC50: 80.2 µM
[2]; fluorescent label: GFP
  IC50: 106 µM

## CCc1ccc(/C=C2/SC(=S)NC2=O)cc1
[1]; fluorescent label: DsRed
  IC50: < 9.85 µM
[1]; fluorescent label: GFP
  IC50: < 9.85 µM
[2]; fluorescent label: DsRed
  IC50: < 9.85 µM
[2]; fluorescent label: GFP
  IC50: < 9.85 µM

## CSc1nc2cc(Cl)c(Oc3cccc(Cl)c3Cl)cc2[nH]1 [TRICLABENDAZOLE]
[1]; fluorescent label: DsRed
  IC50: < 9.85 µM
[1]; fluorescent label: GFP
  IC50: < 9.85 µM
[2]; fluorescent label: DsRed
  IC50: 14.4 µM
[2]; fluorescent label: GFP
  IC50: 13.9 µM

## COC(=O)Nc1ccc(-c2nc(N3CCOCC3)c3cnn(C4CCN(Cc5cccnc5)CC4)c3n2)cc1 [WYE-687]
[1]; fluorescent label: DsRed
  IC50: 15.1 µM
[1]; fluorescent label: GFP
  IC50: < 9.85 µM
[2]; fluorescent label: DsRed
  IC50: 49.6 µM
[2]; fluorescent label: GFP
  IC50: 74.8 µM

## CCn1nc(C(=O)O)c(=O)c2cc3c(cc21)OCO3 [CINOBAC]
[1]; fluorescent label: DsRed
  IC50: 108 µM
[1]; fluorescent label: GFP
  IC50: 125 µM
[2]; fluorescent label: DsRed
  IC50: > 150 µM
[2]; fluorescent label: GFP
  IC50: 115 µM

## CCn1cc(C(=O)O)c(=O)c2cc(F)c(N3CCNC(C)C3)c(F)c21 (centres undefined) [Lomefloxacin hydrochloride]
[1]; fluorescent label: DsRed
  IC50: < 9.85 µM
[1]; fluorescent label: GFP
  IC50: < 9.85 µM
[2]; fluorescent label: DsRed
  IC50: < 9.85 µM
[2]; fluorescent label: GFP
  IC50: < 9.85 µM

## Cc1cc(N)c2ccccc2[n+]1CCCCCCCCCC[n+]1c(C)cc(N)c2ccccc21 [FLUOMIZIN]
[1]; fluorescent label: DsRed
  IC50: < 9.85 µM
[1]; fluorescent label: GFP
  IC50: < 9.85 µM
[2]; fluorescent label: DsRed
  IC50: 13.2 µM
[2]; fluorescent label: GFP
  IC50: 12.2 µM

## O=C1OCCN1/N=C/c1ccc([N+](=O)[O-])o1 [FUROXONE]
[1]; fluorescent label: DsRed
  IC50: < 9.85 µM
[1]; fluorescent label: GFP
  IC50: < 9.85 µM
[2]; fluorescent label: DsRed
  IC50: < 9.85 µM
[2]; fluorescent label: GFP
  IC50: < 9.85 µM

## CC(C)c1c(C(=O)Nc2ccccc2)c(-c2ccccc2)c(-c2ccc(F)cc2)n1CC[C@@H](O)C[C@@H](O)CC(=O)O [Atorvastatin calcium (Lipitor)]
[1]; fluorescent label: DsRed
  IC50: 29 µM and 24.3 µM
[1]; fluorescent label: GFP
  IC50: 30.1 µM and 25.4 µM
[2]; fluorescent label: DsRed
  IC50: 91 µM and 75.8 µM
[2]; fluorescent label: GFP
  IC50: 73.2 µM and 62.8 µM

## C[C@H]1[C@H](C)CC[C@]2(C(=O)O)CC[C@]3(C)C(=CC[C@@H]4[C@@]5(C)C[C@@H](O)[C@H](O)[C@@](C)(CO)[C@@H]5[C@H](O)C[C@]43C)[C@H]12 [MADECASSIC ACID]
[1]; fluorescent label: DsRed
  IC50: 47.8 µM
[1]; fluorescent label: GFP
  IC50: 30 µM
[2]; fluorescent label: DsRed
  IC50: 53.8 µM
[2]; fluorescent label: GFP
  IC50: 54.5 µM

## Oc1c(I)cc(Cl)c2cccnc12 [VIOFORM]
[1]; fluorescent label: DsRed
  IC50: < 9.85 µM
[1]; fluorescent label: GFP
  IC50: < 9.85 µM
[2]; fluorescent label: DsRed
  IC50: 15 µM
[2]; fluorescent label: GFP
  IC50: 14.9 µM

## Cc1onc(-c2ccccc2)c1C(=O)N[C@@H]1C(=O)N2[C@@H]1SC(C)(C)[C@@H]2C(=O)O [Oxacillin sodium monohydrate]
[1]; fluorescent label: DsRed
  IC50: < 9.85 µM
[1]; fluorescent label: GFP
  IC50: < 9.85 µM
[2]; fluorescent label: DsRed
  IC50: < 9.85 µM
[2]; fluorescent label: GFP
  IC50: < 9.85 µM

## CCCCCCCCCCCCC[N+](C)(C)Cc1ccccc1 [ROCCAL]
[1]; fluorescent label: DsRed
  IC50: < 9.85 µM
[1]; fluorescent label: GFP
  IC50: < 9.85 µM
[2]; fluorescent label: DsRed
  IC50: < 9.85 µM
[2]; fluorescent label: GFP
  IC50: < 9.85 µM

## CC(C)c1nc(CN(C)C(=O)N[C@@H](CCN2CCOCC2)C(=O)N[C@H](CC[C@H](Cc2ccccc2)NC(=O)OCc2cncs2)Cc2ccccc2)cs1 [Cobicistat (GS-9350)]
[1]; fluorescent label: DsRed
  IC50: 29.4 µM
[1]; fluorescent label: GFP
  IC50: 27.6 µM
[2]; fluorescent label: DsRed
  IC50: 109 µM
[2]; fluorescent label: GFP
  IC50: 107 µM

## COC(=O)C1=C(C)NC(C)=C(C(=O)OC)C1c1cccc(NC(=O)NCCCN2CCC(c3cccc(OC)c3)CC2)c1
[1]; fluorescent label: DsRed
  IC50: 18.2 µM
[1]; fluorescent label: GFP
  IC50: 13.4 µM
[2]; fluorescent label: DsRed
  IC50: 45.5 µM
[2]; fluorescent label: GFP
  IC50: 54.8 µM

## CN[C@H](CC(C)C)C(=O)N[C@H]1C(=O)N[C@@H](CC(N)=O)C(=O)N[C@H]2C(=O)N[C@H]3C(=O)N[C@H](C(=O)N[C@H](C(=O)O)c4cc(O)cc(O)c4-c4cc3ccc4O)[C@H](O)c3ccc(c(Cl)c3)Oc3cc2cc(c3O[C@@H]2O[C@H](CO)[C@@H](O)[C@H](O)[C@H]2O[C@H]2C[C@](C)(N)[C@H](O)[C@H](C)O2)Oc2ccc(cc2Cl)[C@H]1O [Vancomycin HCl (Vancocin)]
[1]; fluorescent label: DsRed
  IC50: < 9.85 µM
[1]; fluorescent label: GFP
  IC50: < 9.85 µM
[2]; fluorescent label: DsRed
  IC50: < 9.85 µM
[2]; fluorescent label: GFP
  IC50: < 9.85 µM

## Oc1ccc2ccccc2c1SSc1c(O)ccc2ccccc12 [IPA-3]
[1]; fluorescent label: DsRed
  IC50: < 9.85 µM
[1]; fluorescent label: GFP
  IC50: < 9.85 µM
[2]; fluorescent label: DsRed
  IC50: < 9.85 µM
[2]; fluorescent label: GFP
  IC50: < 9.85 µM

## C[C@H]1[C@H](C)CC[C@]2(C(=O)O)CC[C@]3(C)C(=CC[C@@H]4[C@@]5(C)C[C@@H](O)[C@H](O)[C@@](C)(CO)[C@@H]5CC[C@]43C)[C@H]12 [Asiatic acid]
[1]; fluorescent label: DsRed
  IC50: 17 µM and 28 µM
[1]; fluorescent label: GFP
  IC50: 17.5 µM and 23.5 µM
[2]; fluorescent label: DsRed
  IC50: 54.9 µM and 27.7 µM
[2]; fluorescent label: GFP
  IC50: 29.7 µM and 27.7 µM

## CC[C@@]1([C@@H]2O[C@@H]([C@H]3O[C@@](O)(CO)[C@H](C)C[C@@H]3C)C[C@@H]2C)CC[C@H]([C@]2(C)CC[C@]3(C[C@H](O)[C@@H](C)[C@@H]([C@@H](C)[C@@H](OC)[C@H](C)C(=O)O)O3)O2)O1 [Monensin sodium salt (Coban)]
[1]; fluorescent label: DsRed
  IC50: 3.16 µM and < 9.85 µM
[1]; fluorescent label: GFP
  IC50: < 0.498 µM
[2]; fluorescent label: DsRed
  IC50: 2.46 µM and < 9.85 µM
[2]; fluorescent label: GFP
  IC50: 8.62 µM and 13.9 µM

## CC(C)(Oc1ccc(C2CC2(Cl)Cl)cc1)C(=O)O (centres undefined) [Ciprofibrate]
[1]; fluorescent label: DsRed
  IC50: 21.6 µM
[1]; fluorescent label: GFP
  IC50: 30.6 µM
[2]; fluorescent label: DsRed
  IC50: 93.1 µM
[2]; fluorescent label: GFP
  IC50: 107 µM

## CC1=C2C(=CO[C@H](C)[C@H]2C)C(O)=C(C(=O)O)C1=O [CITRININ]
[1]; fluorescent label: DsRed
  IC50: 26.2 µM
[1]; fluorescent label: GFP
  IC50: 29.4 µM
[2]; fluorescent label: DsRed
  IC50: 29.8 µM
[2]; fluorescent label: GFP
  IC50: 47.6 µM
